Molecular target: T1, fibrin gels (40 mg/mL fibrinogen, 33 U/mL thrombin) (Homo sapiens, UniProt P02671+P02675+P02679)
T1 construct: purchased Ethicon (Evicel)
T1 sequence (P02671 20-644 isoform P02671-2 limits assumed): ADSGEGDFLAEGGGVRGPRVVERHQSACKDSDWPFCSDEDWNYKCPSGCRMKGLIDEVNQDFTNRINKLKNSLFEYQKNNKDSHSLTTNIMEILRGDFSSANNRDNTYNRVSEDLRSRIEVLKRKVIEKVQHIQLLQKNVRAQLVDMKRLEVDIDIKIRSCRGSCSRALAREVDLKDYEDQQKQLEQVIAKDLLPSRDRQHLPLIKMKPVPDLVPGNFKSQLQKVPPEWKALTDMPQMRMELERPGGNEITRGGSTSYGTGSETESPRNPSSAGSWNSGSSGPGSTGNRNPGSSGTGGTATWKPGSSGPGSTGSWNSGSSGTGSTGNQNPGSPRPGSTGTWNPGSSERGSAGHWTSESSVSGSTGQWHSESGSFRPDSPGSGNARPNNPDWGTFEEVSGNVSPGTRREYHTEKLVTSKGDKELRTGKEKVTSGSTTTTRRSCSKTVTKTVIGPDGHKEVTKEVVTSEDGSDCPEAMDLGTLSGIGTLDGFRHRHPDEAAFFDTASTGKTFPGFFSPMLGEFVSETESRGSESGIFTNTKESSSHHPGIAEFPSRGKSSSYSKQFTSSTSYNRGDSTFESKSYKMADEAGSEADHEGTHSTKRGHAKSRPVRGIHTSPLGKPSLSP
T1 sequence (P02675 45-491 limits assumed): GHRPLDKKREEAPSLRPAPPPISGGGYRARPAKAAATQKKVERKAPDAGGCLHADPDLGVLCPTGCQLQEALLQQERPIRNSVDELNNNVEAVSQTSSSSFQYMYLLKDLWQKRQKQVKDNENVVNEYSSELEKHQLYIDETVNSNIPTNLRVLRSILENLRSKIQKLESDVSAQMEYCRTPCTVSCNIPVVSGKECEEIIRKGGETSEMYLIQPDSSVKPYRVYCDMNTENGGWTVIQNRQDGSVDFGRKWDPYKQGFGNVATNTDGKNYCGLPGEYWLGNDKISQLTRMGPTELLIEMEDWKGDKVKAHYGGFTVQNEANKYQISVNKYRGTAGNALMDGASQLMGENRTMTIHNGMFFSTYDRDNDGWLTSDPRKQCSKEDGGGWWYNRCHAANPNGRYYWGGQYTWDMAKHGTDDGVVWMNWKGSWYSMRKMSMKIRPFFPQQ
T1 sequence (P02679 27-437 isoform P02679-2 limits assumed): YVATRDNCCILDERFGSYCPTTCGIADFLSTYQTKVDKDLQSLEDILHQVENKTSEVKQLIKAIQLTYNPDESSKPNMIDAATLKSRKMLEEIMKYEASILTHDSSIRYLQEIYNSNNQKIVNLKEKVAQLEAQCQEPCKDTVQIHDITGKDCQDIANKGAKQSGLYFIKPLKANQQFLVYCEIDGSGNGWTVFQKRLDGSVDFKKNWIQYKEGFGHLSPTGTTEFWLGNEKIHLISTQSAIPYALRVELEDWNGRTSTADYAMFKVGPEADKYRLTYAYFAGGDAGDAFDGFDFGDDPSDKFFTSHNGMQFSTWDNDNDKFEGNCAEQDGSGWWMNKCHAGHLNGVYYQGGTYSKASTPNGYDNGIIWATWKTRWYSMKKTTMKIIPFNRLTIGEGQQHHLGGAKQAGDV
Assay: Biexponential modeling of shear modulus (g′) versus time data
Settings: biexponential model; for time shift parameter (xc): 0.12% dye, n=3; for G′1: fast rate associated parameter; for G′1 / r1 / G′2 / r2 / xc: avg ± sd, n = 3; for r1: fast rate constant; for G′2: slow rate associated parameter; for r2: slow rate constant; for xc: time shift parameter
Protocol: Modeling was performed using the shear modulus (g′) versus time data for each time sweep performed with gels with a final concentration of 40 mg/mL fibrinogen, 33 U/mL thrombin, and 0.12% dye. A biexponential model was used as described elsewhere (see, e.g., Wedgwood et al., Macromolecular Symposia, 334:117-25 (2013); and Moreno-Arotzena et al., Materials (Basel), 8:1636-51 (2015)). The following equation was used: […]
This equation model assumes a fast (1) and slow (2) kinetic rate. As such G′1 and G′2 are the respective rate associated parameters, r1 and r2 are the respective rates constants, and Xc is a time shift parameter. Modeling was performed using MATLAB (Mathworks; Natick, MA), using the model fit function. Parameters were defined with r1>r2 and xc as positive. Each sample run was best fitted to the model to generate an r^2>0.98.
Previous work has fitted fibrin gelation kinetics to a biexponential model (see, e.g., Moreno-Arotzena et al., Materials (Basel), 8:1636-51 (2015)). In this model, gelation, as measured by the shear modulus over time, consists of a fast and slow reaction rate. Each time sweep series was fitted to the biexponential model to determine the fast (1) and slow (2) associated parameters, reaction rates and time shift parameter (Table 2 and FIG. 9). The time shift parameters (xc) for the PBS, TB, EB, and PEG groups were 19.7±7.2, 62.9±9.7, 110.6±7.6, and 20.3±5.0 sec (n=3, p<0.001) (FIG. 9A). […] This re-affirms the shifted delay in gelation onset for TB and EB groups and confirms that the effect is not due to changes in molality. To understand if there is a change in reaction rates, the ratio of the fast to slow reaction rate was compared. The ratios, r1/r2, for PBS, TB, EB and PEG groups were […] (n=3, p=0.057) (FIG. 9B).

Row | Compound | time shift parameter (xc) [s] | G′1 | r1 | G′2 | r2 | xc
1 | Cc1cc(-c2ccc(/N=N/c3c(S(=O)(=O)O)cc4cc(S(=O)(=O)O)cc(N)c4c3O)c(C)c2)ccc1/N=N/c1c(S(=O)(=O)O)cc2cc(S(=O)(=O)O)cc(N)c2c1O [TB, Trypan Blue] | 62.9 ± 9.7 | 1555 ± 92 | 2679 ± 366 | 800 ± 186 | 455 ± 131 | 63 ± 10
2 | Cc1cc(-c2ccc(/N=N/c3ccc4c(S(=O)(=O)O)cc(S(=O)(=O)O)c(N)c4c3O)c(C)c2)ccc1/N=N/c1ccc2c(S(=O)(=O)O)cc(S(=O)(=O)O)c(N)c2c1O [EB, Evans Blue] | 110.6 ± 7.6 | 927 ± 395 | 3720 ± 732 | 787 ± 210 | 739 ± 205 | 111 ± 8

— patent US20230414826A1, “FIBRIN HYDROGELS” (Mayo Foundation for Medical Education and Research, priority 2020, published 2023)
